How the values were obtained:
D(1A) dopamine receptor = D(1A) dopamine receptor (Homo sapiens, UniProt P21728); test: Displacement of [3H]-SCH23390 from recombinant human D1 receptor transiently expressed in HEKT cell membranes measured after 90 mins by microbeta scintillation counting method
D(2) dopamine receptor = D(2) dopamine receptor (Homo sapiens, UniProt P14416); test: Displacement of [3H]-N-methylspiperone from recombinant human D2 receptor stably expressed in fibroblast cell membranes measured after 90 mins by microbeta scintillation counting method
D(2) dopamine receptor, sequence (P14416 whole entry): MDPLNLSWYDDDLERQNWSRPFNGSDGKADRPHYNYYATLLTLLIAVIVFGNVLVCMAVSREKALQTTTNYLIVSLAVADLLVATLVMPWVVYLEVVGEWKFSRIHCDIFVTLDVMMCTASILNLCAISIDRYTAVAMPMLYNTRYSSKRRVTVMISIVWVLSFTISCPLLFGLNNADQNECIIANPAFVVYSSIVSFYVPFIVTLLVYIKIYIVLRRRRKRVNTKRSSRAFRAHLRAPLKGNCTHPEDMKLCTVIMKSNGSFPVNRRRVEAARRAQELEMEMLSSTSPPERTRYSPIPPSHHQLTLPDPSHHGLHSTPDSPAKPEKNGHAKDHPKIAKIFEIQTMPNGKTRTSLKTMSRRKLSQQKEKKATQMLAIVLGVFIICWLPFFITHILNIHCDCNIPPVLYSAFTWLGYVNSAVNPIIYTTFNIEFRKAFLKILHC

D(3) dopamine receptor = D(3) dopamine receptor (Homo sapiens, UniProt P35462); test: Displacement of [3H]-N-methylspiperone from recombinant human D3 receptor (unknown origin) measured after 90 mins by microbeta scintillation counting method
D(3) dopamine receptor, sequence (P35462 whole entry): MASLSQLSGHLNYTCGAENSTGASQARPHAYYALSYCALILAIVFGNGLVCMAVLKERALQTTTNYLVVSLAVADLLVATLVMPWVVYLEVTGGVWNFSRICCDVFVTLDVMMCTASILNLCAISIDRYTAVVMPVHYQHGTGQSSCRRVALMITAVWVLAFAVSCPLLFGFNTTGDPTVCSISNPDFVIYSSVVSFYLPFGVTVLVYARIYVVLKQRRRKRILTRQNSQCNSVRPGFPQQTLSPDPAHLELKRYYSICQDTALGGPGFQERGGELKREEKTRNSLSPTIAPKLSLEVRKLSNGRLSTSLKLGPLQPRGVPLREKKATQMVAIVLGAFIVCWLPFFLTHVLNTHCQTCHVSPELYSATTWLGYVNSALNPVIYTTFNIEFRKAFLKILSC

D(4) dopamine receptor = target: T1, D(4) dopamine receptor (Homo sapiens, UniProt P21917); test: Displacement of [3H]-N-methylspiperone from recombinant human D4 receptor stably expressed in HEK cell membranes measured after 90 mins by microbeta scintillation counting method
T1 sequence (P21917 whole entry): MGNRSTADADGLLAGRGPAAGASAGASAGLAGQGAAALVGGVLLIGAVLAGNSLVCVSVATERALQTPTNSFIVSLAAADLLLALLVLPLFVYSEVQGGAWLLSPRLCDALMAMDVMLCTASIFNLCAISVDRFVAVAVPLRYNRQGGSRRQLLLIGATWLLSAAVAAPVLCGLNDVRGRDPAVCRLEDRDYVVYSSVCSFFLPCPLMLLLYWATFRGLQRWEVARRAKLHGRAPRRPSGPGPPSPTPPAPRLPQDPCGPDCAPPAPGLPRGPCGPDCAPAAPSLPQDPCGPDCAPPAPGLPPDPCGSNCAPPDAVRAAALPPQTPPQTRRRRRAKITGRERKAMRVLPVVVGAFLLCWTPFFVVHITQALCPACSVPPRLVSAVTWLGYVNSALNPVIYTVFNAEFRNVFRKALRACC

D(1B) dopamine receptor = D(1B) dopamine receptor (Homo sapiens, UniProt P21918); test: Displacement of [3H]-SCH23390 from recombinant human D5 receptor transiently expressed in HEKT cell membranes measured after 90 mins by microbeta scintillation counting method
D(1B) dopamine receptor, sequence (P21918 whole entry): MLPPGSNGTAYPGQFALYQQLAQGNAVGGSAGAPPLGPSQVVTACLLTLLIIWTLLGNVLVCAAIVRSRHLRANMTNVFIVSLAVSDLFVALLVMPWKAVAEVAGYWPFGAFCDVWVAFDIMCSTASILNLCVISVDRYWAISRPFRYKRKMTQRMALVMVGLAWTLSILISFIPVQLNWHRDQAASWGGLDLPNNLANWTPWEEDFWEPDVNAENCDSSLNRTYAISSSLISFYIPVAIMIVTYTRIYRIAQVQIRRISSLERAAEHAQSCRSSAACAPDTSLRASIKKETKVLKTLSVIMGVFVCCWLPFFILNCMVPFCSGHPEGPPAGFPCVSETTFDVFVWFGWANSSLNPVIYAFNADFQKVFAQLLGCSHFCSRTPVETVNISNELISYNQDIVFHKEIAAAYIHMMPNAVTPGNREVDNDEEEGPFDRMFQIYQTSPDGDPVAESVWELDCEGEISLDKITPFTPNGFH

[1] = target: T2, 5-hydroxytryptamine receptor 2C (Homo sapiens, UniProt P28335); test: Displacement of [3H]-Mesulergine from recombinant human 5HT2C receptor expressed in HEKT cell membranes measured after 90 mins by microbeta scintillation counting method
T2 sequence (P28335 whole entry): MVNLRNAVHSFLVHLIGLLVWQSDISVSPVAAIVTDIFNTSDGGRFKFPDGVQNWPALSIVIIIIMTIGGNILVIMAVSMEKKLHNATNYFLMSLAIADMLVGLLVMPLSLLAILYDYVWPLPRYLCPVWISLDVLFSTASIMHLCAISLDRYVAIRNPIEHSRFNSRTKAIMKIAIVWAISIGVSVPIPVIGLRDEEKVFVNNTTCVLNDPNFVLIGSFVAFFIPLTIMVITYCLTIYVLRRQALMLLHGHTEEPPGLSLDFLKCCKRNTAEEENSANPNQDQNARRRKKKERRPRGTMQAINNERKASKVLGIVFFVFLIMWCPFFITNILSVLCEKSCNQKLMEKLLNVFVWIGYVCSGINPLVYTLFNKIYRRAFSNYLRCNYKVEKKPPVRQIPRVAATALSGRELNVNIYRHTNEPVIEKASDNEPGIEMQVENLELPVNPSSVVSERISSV

D(1A) dopamine receptor, sequence (P21728 whole entry): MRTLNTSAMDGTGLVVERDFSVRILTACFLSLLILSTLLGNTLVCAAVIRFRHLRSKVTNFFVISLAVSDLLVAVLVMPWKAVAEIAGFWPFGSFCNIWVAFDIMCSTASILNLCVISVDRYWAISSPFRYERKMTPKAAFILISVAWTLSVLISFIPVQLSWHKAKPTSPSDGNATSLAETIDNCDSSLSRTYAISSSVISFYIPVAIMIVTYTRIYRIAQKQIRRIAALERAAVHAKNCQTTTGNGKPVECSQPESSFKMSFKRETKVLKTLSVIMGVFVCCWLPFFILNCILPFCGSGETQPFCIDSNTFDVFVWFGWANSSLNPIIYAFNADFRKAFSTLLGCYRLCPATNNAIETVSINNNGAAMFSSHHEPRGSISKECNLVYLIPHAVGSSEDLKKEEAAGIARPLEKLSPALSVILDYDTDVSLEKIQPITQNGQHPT

SMILES | Ki (D(1A) dopamine receptor) | Ki (D(2) dopamine receptor) | Ki (D(3) dopamine receptor) | Ki (D(4) dopamine receptor) | Ki (D(1B) dopamine receptor) | Ki [1]
CCOc1ccc(F)cc1C1CC1CN(C)CCCSc1nnc(-c2ccccc2)n1C (stereo not given) | 1120 nM | > 5000 nM | 550 nM | 989 nM | > 5000 nM | 
CCCN(CCCCNC(=O)c1ccc2ccccc2c1)CC1CC1c1cc(F)ccc1OC (stereo not given) | 967 nM | 1080 nM | 14.5 nM | 844 nM | 2200 nM | 63.1 nM
CCCN(CCCCNC(=O)c1ccc2ccccc2c1)CC1CC1c1cccc(Cl)c1 (stereo not given) | 940 nM | 4010 nM | 15.5 nM | 1320 nM | 8670 nM | 136 nM
CCOc1ccc(F)cc1C1CC1CN(CC)CCCSc1nnc(-c2ccccc2)n1C (stereo not given) | 1150 nM | 380 nM | 55 nM | 101 nM | 1580 nM | 
Cn1c(SCCCNCC2CC2c2cc(F)ccc2OCCF)nnc1-c1ccccc1 (stereo not given) | 369 nM | 1500 nM | 525 nM | 962 nM | 1080 nM | 
COc1ccc(F)cc1C1CC1CN(C)CCCSc1nnc(-c2ccccc2)n1C (stereo not given) | 794 nM | 324 nM | 84.5 nM | 85.1 nM | 1000 nM | 
CCN(CCCCNC(=O)c1cc2ccccc2[nH]1)CC1CC1c1cc(F)ccc1OC (stereo not given) | 1080 nM | 380 nM | 23.4 nM | 220 nM | > 5000 nM | 49 nM
CCCN(CCCCNC(=O)c1ccc2ccccc2c1)CC1CC1c1cccc(Cl)c1Cl (racemic) | 891 nM | 2100 nM |  | 1340 nM | 4020 nM | 123 nM
CCN(CCCSc1nnc(-c2ccccc2)n1C)CC1CC1c1cc(Cl)ccc1OC (stereo not given) | 1510 nM | 238 nM | 31.6 nM | 241 nM | > 5000 nM | 203 nM
CCCN(CCCCNC(=O)c1cc2ccccc2[nH]1)CC1CC1c1cccc(Cl)c1 (stereo not given) | 992 nM | 3490 nM | 11.1 nM | 878 nM | > 5000 nM | 132 nM
CCCN(CCCCNC(=O)c1cc2ccccc2[nH]1)CC1CC1c1cc(Cl)ccc1OC (stereo not given) | 818 nM | 1420 nM | 11.5 nM | 575 nM | 4230 nM | 85.1 nM
CCN(CCCSc1nnc(-c2ccccc2)n1C)CC1CC1c1cc(F)ccc1OCCF (stereo not given) | 584 nM | 845 nM | 113 nM | 179 nM | 2000 nM | 
CCCN(CCCCNC(=O)c1cc2ccccc2[nH]1)CC1CC1c1cccc(Cl)c1Cl (racemic) | 891 nM | 1500 nM |  | 1130 nM | 3500 nM | 105 nM
CCCN(CCCCNC(=O)c1ccc(-c2ccccn2)cc1)CC1CC1c1cccc(F)c1 (stereo not given) | 2910 nM | > 5000 nM | 45.4 nM | 2220 nM | > 5000 nM | 1340 nM
CCCN(CCCCNC(=O)c1ccc2ccccc2c1)CC1CC1c1ccc(Cl)cc1 (stereo not given) | 509 nM | 4610 nM | 32.6 nM | 1590 nM | 6110 nM | 179 nM
CCCN(CCCCNC(=O)c1cc2ccccc2[nH]1)CC1CC1c1ccc(F)cc1 (stereo not given) | 1460 nM | 5930 nM | 45.7 nM | 1610 nM | 10500 nM | 219 nM
CCCN(CCCCNC(=O)c1ccc2ccccc2c1)CC1CC1c1ccc(F)cc1 (stereo not given) | 992 nM | 5620 nM | 55.8 nM | 2170 nM | > 5000 nM | 238 nM
CCCN(CCCCNC(=O)c1ccc(-c2ccccn2)cc1)CC1CC1c1ccc(Cl)cc1 (stereo not given) | 1310 nM | > 5000 nM | 17.6 nM | 1410 nM | 8840 nM | 284 nM
COc1ccc(F)cc1C1CC1CN(CCCSc1nnc(-c2ccccc2)n1C)CC1CC1 (stereo not given) | 1080 nM | > 5000 nM | 64.6 nM | 292 nM | 1200 nM | 126 nM
CCN(CCCCNC(=O)c1ccc2ccccc2c1)CC1CC1c1cc(F)ccc1OC (stereo not given) | 986 nM | 407 nM | 15 nM | 385 nM | 1720 nM | 57.5 nM

SMILES | Ki (D(1A) dopamine receptor) | Ki (D(2) dopamine receptor) | Ki (D(3) dopamine receptor) | Ki (D(4) dopamine receptor) | Ki (D(1B) dopamine receptor) | Ki [1]
COc1ccc(F)cc1C1CC1CN(CCCSc1nnc(-c2ccccc2)n1C)C(C)C (stereo not given) | > 5000 nM | 513 nM | 105 nM | 326 nM | > 5000 nM | 495 nM
CCOc1ccc(F)cc1C1CC1CNCCCSc1nnc(-c2ccccc2)n1C (stereo not given) | 295 nM | 661 nM | 219 nM | 501 nM | 589 nM | 
CCCN(CCCCNC(=O)c1cc2ccccc2[nH]1)CC1CC1c1cccc(F)c1 (stereo not given) | 1100 nM | 3490 nM | 18.8 nM | 671 nM | > 5000 nM | 106 nM
CCCN(CCCCNC(=O)c1ccc(-c2ccccn2)cc1)CC1CC1c1ccc(F)cc1 (stereo not given) | 3630 nM | > 5000 nM | 106 nM | 2880 nM | > 5000 nM | 2170 nM
CCCN(CCCCNC(=O)c1ccc(-c2ccccn2)cc1)CC1CC1c1cccc(Cl)c1Cl (racemic) | 1650 nM |  |  | 2010 nM | > 5000 nM | 97.7 nM
CCCN(CCCCNC(=O)c1ccc(-c2ccccn2)cc1)CC1CC1c1ccc(C(F)(F)F)cc1 (stereo not given) | 1420 nM | > 5000 nM | 23.4 nM | 2170 nM | 7700 nM | 2360 nM
CCCN(CCCSc1nnc(-c2ccccc2)n1C)CC1CC1c1cc(Cl)ccc1OC (stereo not given) | 1920 nM | 233 nM | 36.7 nM | 130 nM | > 5000 nM | 535 nM
CCCN(CCCCNC(=O)c1ccc2ccccc2c1)CC1CC1c1cccc(F)c1 (stereo not given) | 1310 nM | 4820 nM | 26.7 nM | 1300 nM | > 5000 nM | 165 nM
COc1ccc(F)cc1C1CC1CNCCCSc1nnc(-c2ccccc2)n1C (stereo not given) | 631 nM | 253 nM | 89.8 nM | 133 nM | 926 nM | 
CN(CCCSc1nnc(-c2ccccc2)n1C)CC1CC1c1cc(F)ccc1OCCF (stereo not given) | 1470 nM | 2440 nM | 562 nM | 977 nM | 2150 nM | 
CCCN(CCCCNC(=O)c1ccc2ccccc2c1)CC1CC1c1cc(Cl)ccc1OC (stereo not given) | 930 nM | 1120 nM | 26.9 nM | 945 nM | 1100 nM | 85 nM
CCCN(CCCCNC(=O)c1ccc2ccccc2c1)CC1CC1c1ccc(C(F)(F)F)cc1 (stereo not given) | 1710 nM | > 5000 nM | 43 nM | 215 nM | 5800 nM | 1260 nM
CCCN(CCCCNC(=O)c1ccc(-c2ccccn2)cc1)CC1CC1c1cc(Cl)ccc1OC (stereo not given) | > 5000 nM | 2100 nM | 39.4 nM | 1830 nM | > 5000 nM | 136 nM
CCCN(CCCCNC(=O)c1cc2ccccc2[nH]1)CC1CC1c1ccc(Cl)cc1 (stereo not given) | 649 nM | 3160 nM | 25.7 nM | 510 nM | 9290 nM | 137 nM
CCCN(CCCSc1nnc(-c2ccccc2)n1C)CC1CC1c1cc(F)ccc1OC (stereo not given) | 1670 nM | 1160 nM | 87.1 nM | 85.8 nM | > 5000 nM | 412 nM
CCN(CCCCNC(=O)c1ccc2ccccc2c1)CC1CC1c1cc(Cl)ccc1OC (stereo not given) | 1980 nM | 408 nM | 23.4 nM | 553 nM | 571 nM | 49 nM
CCCN(CCCCNC(=O)c1cc2ccccc2[nH]1)CC1CC1c1ccc(C(F)(F)F)cc1 (stereo not given) | 1280 nM | > 5000 nM | 33.1 nM | 2070 nM | 8190 nM | 1310 nM
CCCN(CCCCNC(=O)c1ccc(-c2ccccn2)cc1)CC1CC1c1cc(F)ccc1OC (racemic) | 1760 nM | 3140 nM |  | 1140 nM | > 5000 nM | 53 nM
CCN(CCCSc1nnc(-c2ccccc2)n1C)CC1CC1c1cc(F)ccc1OC (stereo not given) | 1720 nM | 275 nM | 44 nM | 30 nM | 1850 nM | 
